≈ marks a conversion by molar mass, not a printed value. Starred links: 1 amine or outer side, 2 acyl side, 3 side chain; linkers in the order of their positions; H or OH if unused. Positions of bridges follow the written chain, without caps; N, C: chain ends. Residues, ends and D or L forms follow the SMILES beside them. 2,2'Bipyridine(5,5'-diCH2) = c1cc(-c2ccc(C[*:2])cn2)ncc1C[*:1]
Columns and labels:
[1] = 48 hours cytotoxicity assay (CellTiter-Glo), liver toxicity; assay type: cell-based, human; settings: 48 hours of incubation, CellTiter-Glo; read-out: Inhibitory Concentration at 50% Cytotoxicity (IC50) Human Liver Cells (HepG2)
Outline: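 HepG2 cells in EMEM with 10% FBS, allowed to attach 4 h, then exposed to serially diluted StAMPs or vehicle for 48 h at 37 °C. Viability read by CellTiter-Glo luminescence.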

[2] = tested on: Staphylococcus aureus (S. aureus); assay type: cell-based; settings: microbroth dilution, 20-24 hours at 37° C.
Outline: (§1)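 Broth microdilution adapted from CLSI in Mueller-Hinton broth or cation-adjusted MHB II; overnight cultures at 37 °C were regrown 3-4 h, then added to serially diluted peptide at a final 5×10^5 CFU/ml. After 20-24 h at 37 °C, MIC was taken as the lowest peptide concentration with no visible growth.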

[3] = tested on: Klebsiella pneumoniae (K. pneumoniae); assay type: cell-based; settings: microbroth dilution, 20-24 hours at 37° C.
Outline: as §1

[4] = tested on: Escherichia coli (E. coli); assay type: cell-based; settings: microbroth dilution, 20-24 hours at 37° C.
Outline: as §1

[5] = tested on: Pseudomonas aeruginosa (P. aeruginosa); assay type: cell-based; settings: microbroth dilution, 20-24 hours at 37° C.
Outline: as §1

[6] = tested on: Acinetobacter baumannii (A. baumannii); assay type: cell-based; settings: microbroth dilution, 20-24 hours at 37° C.
Outline: as §1

[7] = 90 minute cytotoxicity assay (LDH release), renal toxicity; assay type: cell-based; settings: 90 minutes of incubation, LDH release; read-out: Inhibitory Concentration at 50% Cytotoxicity (IC50) Human Renal Proximal Tubule Epithelial Cells (RPTEC)
Outline: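 RPTEC plated overnight, given fresh medium, then exposed to serial peptide dilutions or vehicle for 90 min at 37° C. Medium LDH measured by 10 min reagent incubation and absorbance at 490 nm.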

Structure (SMILES): CC[C@H](C)[C@H](NC(=O)CN)C(=O)N[C@@H](Cc1ccccc1)C(=O)N[C@@H](CO)C(=O)N[C@@H](CCCCN)C(=O)N[C@@H](CC(C)C)C(=O)N[C@H]1CSCc2ccc(nc2)-c2ccc(cn2)CSC[C@@H](C(=O)N[C@@H](CC(C)C)C(=O)N[C@H](C(=O)N[C@@H](CO)C(=O)NCC(=O)N[C@@H](CC(C)C)C(=O)N[C@@H](CCCCN)C(=O)NCC(N)=O)[C@@H](C)CC)NC(=O)[C@H](CC(N)=O)NC(=O)[C@H](CCCCN)NC(=O)[C@H]([C@@H](C)CC)NC(=O)[C@H](CCCCN)NC(=O)[C@H](CCCCN)NC(=O)CNC1=O [compound 89] (H-GIFSKLCGKKIKNCLISGLKG-NH2; linker 7-14 via 2,2'Bipyridine(5,5'-diCH2))
- IC50 [1]: 62 µg/mL (≈ 26 µM)
- Minimum Inhibitory Concentration (MIC) S. aureus [2]: >64 µg/mL
- Minimum Inhibitory Concentration (MIC) K. pneumoniae [3]: 16 µg/mL
- Minimum Inhibitory Concentration (MIC) E. coli [4]: 4 µg/mL
- Minimum Inhibitory Concentration (MIC) P. aeruginosa [5]: 32 µg/mL
- Minimum Inhibitory Concentration (MIC) A. baumannii [6]: 4 µg/mL
- IC50 [7]: 80 µg/mL (≈ 33.5 µM)
